Assay results: PMC10066365, “Nemacol is a small molecule inhibitor of C. elegans vesicular acetylcholine transporter with anthelmintic potential” (Nature Communications, 2023)
Where “and” joins values, the source holds several entries; their conditions need not be identical. Equal entries are not always repeated.

What was measured:
C. elegans = C. elegans motor phenotype scoring on solid media (Punc/jerky-unc, coiled, paralyzed), wild-type young adults; assay type: in vivo, Caenorhabditis elegans; details: for atypical locomotion (number of animals) / coiled (number of animals) / no phene (number of animals) / paralyzed (number of animals) / any phene: mean % fraction of young adults exhibiting any phenotype (coiled, jerky-Unc or paralyzed): one hour; for atypical locomotion (number of animals) / coiled (number of animals) / no phene (number of animals) / paralyzed (number of animals): young adults, 20 animals per trial, single technical replicate; for any phene: mean % fraction of young adults exhibiting any phenotype (coiled, jerky-Unc or paralyzed): mean of three biological replicates; for EC50: Caenorhabditis elegans, any motor phenotype after 1 h on solid media, ± 95% CI, read-out: C. elegans - motor disruption EC50
[1] = system: Dirofilaria immitis L3/L4; assay: Dirofilaria immitis L3/L4 motility assay (DiroImager, 72 h); details: Dirofilaria immitis L4
Pristionchus pacificus = Pristionchus pacificus motor disruption dose-response on solid media, 1 h; details: for mean % any phene (coiled, jerky-Unc or paralyzed): Pristionchus pacificus young adults; for mean % any phene (coiled, jerky-Unc or paralyzed) / mean % any phene: mean of three biological replicates; for EC50: Pristionchus pacificus, 1 h, read-out: P. pacificus motor disruption EC50; for mean % any phene: any phenotype (coiled, jerky-Unc or paralyzed) at one hour; for rep 1 atypical locomotion / rep 1 coiled / rep 1 no phene / rep 1 paralyzed / rep 2 atypical locomotion / rep 2 coiled / rep 2 no phene / rep 2 paralyzed / rep 3 atypical locomotion / rep 3 coiled / rep 3 no phene / rep 3 paralyzed: count of 20 animals per trial, one hour
Experimental: Locomotor phenotype analyses were done in 24-well plates with 1 mL of MYOB substrate (27.5 g Trizma HCl, 12 g Trizma Base, 230 g bacto tryptone, 10 g NaCl, 0.4 g cholesterol (95%)) seeded with 25 µL of OP50 Escherichia coli on each well. Each compound was added to the MYOB substrate before pouring to achieve the desired final concentrations of 30 µM or 60 µM after diffusion through the media. Synchronized young adult worms are transferred into each well using a platinum wire pick. A Leica MZ75 stereomicroscope was used to visualize the movement of worms on the solid substrate. The specific dominant locomotor phenotype (i.e. ‘Punc’, ‘paralyzed’, ‘coiler’ or ‘wild-type locomotion’) was scored after the touch on the head with a platinum wire over a ~3–5 s of observation. […] Coiled animals were not scored as paralyzed despite sometimes not responding to light touch.

[2] = system: Dirofilaria immitis microfilariae; assay: Dirofilaria immitis microfilariae immobility assay (DiroImager, 72 h); details: Dirofilaria immitis microfilariae
How it was run: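 About 250 freshly purified microfilariae of the Missouri isolate per well in supplemented RPMI 1640, exposed to compound for 72 h. Motility scored by automated whole-plate optical imaging; medium with 1% DMSO as negative control.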

[3] = conc 3.75, observed at one hour

FC(F)(F)c1cccc(N2CCN(C3CCCCCC3)CC2)c1 [Nemacol-52]
atypical locomotion (number of animals) (C. elegans; 3.75uM): 14 and 12 and 10 and 8 and 15 | coiled (number of animals) (C. elegans; 3.75uM): 0 | no phene (number of animals) (C. elegans; 3.75uM): 4 and 6 and 10 and 12 and 5 | paralyzed (number of animals) (C. elegans; 3.75uM): 2 and 0 | any phene: mean % fraction of young adults exhibiting any phenotype (coiled, jerky-Unc or paralyzed) (C. elegans; 3.75uM): 64.1667% | atypical locomotion (number of animals) (C. elegans; 15uM): 12 and 7 and 8 and 10 and 13 and 9 | coiled (number of animals) (C. elegans; 15uM): 0 and 7 and 4 and 5 | no phene (number of animals) (C. elegans; 15uM): 0 | paralyzed (number of animals) (C. elegans; 15uM): 8 and 13 and 5 and 6 and 2 and 7 | any phene: mean % fraction of young adults exhibiting any phenotype (coiled, jerky-Unc or paralyzed) (C. elegans; 15uM): 100% | atypical locomotion (number of animals) (C. elegans; 60uM): 12 and 8 and 7 and 6 and 13 | coiled (number of animals) (C. elegans; 60uM): 0 and 1 | no phene (number of animals) (C. elegans; 60uM): 0 | paralyzed (number of animals) (C. elegans; 60uM): 8 and 12 and 13 and 7 | any phene: mean % fraction of young adults exhibiting any phenotype (coiled, jerky-Unc or paralyzed) (C. elegans; 60uM): 100% | EC50 (C. elegans): 3.6 µM | % effect (motility), DIROIM L4 ([1]; 2 µM): 0% | % effect (motility), DIROIM L4 ([1]; 10 µM): 0% | % effect (motility), DIROIM L4 ([1]; 50 µM): 15% | mean % any phene (coiled, jerky-Unc or paralyzed) (Pristionchus pacificus; [3]): 5% | mean % any phene (coiled, jerky-Unc or paralyzed) (Pristionchus pacificus; conc 15, observed at one hour): 21.6667% | mean % any phene (coiled, jerky-Unc or paralyzed) (Pristionchus pacificus; conc 60, observed at one hour): 97.5% | EC50 (Pristionchus pacificus): 21.7 ± 3.7 µM | % effect (motility), DIROIM MF ([2]; 0.016 µM): 0% | % effect (motility), DIROIM MF ([2]; 0.08 µM): 0% | % effect (motility), DIROIM MF ([2]; 0.4 µM): 0% | % effect (motility), DIROIM MF ([2]; 2 µM): 0% | % effect (motility), DIROIM MF ([2]; 10 µM): 0%

c1ccc(N2CCN(C3CCCCCCC3)CC2)cc1 [Nemacol-54]
atypical locomotion (number of animals) (C. elegans; 3.75uM): 7 and 14 and 6 and 3 and 12 and 10 | coiled (number of animals) (C. elegans; 3.75uM): 0 | no phene (number of animals) (C. elegans; 3.75uM): 11 and 4 and 14 and 17 and 8 and 10 | paralyzed (number of animals) (C. elegans; 3.75uM): 2 and 0 | any phene: mean % fraction of young adults exhibiting any phenotype (coiled, jerky-Unc or paralyzed) (C. elegans; 3.75uM): 46.6667% | atypical locomotion (number of animals) (C. elegans; 15uM): 8 and 13 and 15 and 18 and 17 | coiled (number of animals) (C. elegans; 15uM): 2 and 1 and 0 | no phene (number of animals) (C. elegans; 15uM): 0 and 5 and 3 | paralyzed (number of animals) (C. elegans; 15uM): 10 and 6 and 0 and 1 | any phene: mean % fraction of young adults exhibiting any phenotype (coiled, jerky-Unc or paralyzed) (C. elegans; 15uM): 93.3333% | atypical locomotion (number of animals) (C. elegans; 60uM): 2 and 4 and 6 and 5 and 3 | coiled (number of animals) (C. elegans; 60uM): 8 and 7 and 5 and 4 and 9 | no phene (number of animals) (C. elegans; 60uM): 0 | paralyzed (number of animals) (C. elegans; 60uM): 10 and 9 and 8 and 11 | EC50 (C. elegans): 4 ± 1.1 µM | % effect (motility), DIROIM L4 ([1]; 10 µM): 0% | % effect (motility), DIROIM L4 ([1]; 50 µM): 25% | EC50 (Pristionchus pacificus): 52.4 µM | mean % any phene (Pristionchus pacificus; conc 3.75): 0% | rep 1 atypical locomotion (Pristionchus pacificus; conc 3.75): 0 | rep 1 coiled (Pristionchus pacificus; conc 3.75): 0 | rep 1 no phene (Pristionchus pacificus; conc 3.75): 20 | rep 1 paralyzed (Pristionchus pacificus; conc 3.75): 0 | rep 2 atypical locomotion (Pristionchus pacificus; conc 3.75): 0 | rep 2 coiled (Pristionchus pacificus; conc 3.75): 0 | rep 2 no phene (Pristionchus pacificus; conc 3.75): 20 | rep 2 paralyzed (Pristionchus pacificus; conc 3.75): 0 | rep 3 atypical locomotion (Pristionchus pacificus; conc 3.75): 0 | rep 3 coiled (Pristionchus pacificus; conc 3.75): 0 | rep 3 no phene (Pristionchus pacificus; conc 3.75): 20 | rep 3 paralyzed (Pristionchus pacificus; conc 3.75): 0 | mean % any phene (Pristionchus pacificus; conc 15): 0% | rep 1 atypical locomotion (Pristionchus pacificus; conc 15): 0 | rep 1 coiled (Pristionchus pacificus; conc 15): 0 | rep 1 no phene (Pristionchus pacificus; conc 15): 20 | rep 1 paralyzed (Pristionchus pacificus; conc 15): 0 | rep 2 atypical locomotion (Pristionchus pacificus; conc 15): 0 | rep 2 coiled (Pristionchus pacificus; conc 15): 0 | rep 2 no phene (Pristionchus pacificus; conc 15): 20 | rep 2 paralyzed (Pristionchus pacificus; conc 15): 0 | rep 3 atypical locomotion (Pristionchus pacificus; conc 15): 0 | rep 3 coiled (Pristionchus pacificus; conc 15): 0 | rep 3 no phene (Pristionchus pacificus; conc 15): 20 | rep 3 paralyzed (Pristionchus pacificus; conc 15): 0 | mean % any phene (Pristionchus pacificus; conc 60): 92.5% | rep 1 atypical locomotion (Pristionchus pacificus; conc 60): 6 and 10 | rep 1 coiled (Pristionchus pacificus; conc 60): 5 and 4 | rep 1 no phene (Pristionchus pacificus; conc 60): 5 and 4 | rep 1 paralyzed (Pristionchus pacificus; conc 60): 4 and 2 | rep 2 atypical locomotion (Pristionchus pacificus; conc 60): 12 and 10 | rep 2 coiled (Pristionchus pacificus; conc 60): 5 and 7 | rep 2 no phene (Pristionchus pacificus; conc 60): 0 | rep 2 paralyzed (Pristionchus pacificus; conc 60): 3 | rep 3 atypical locomotion (Pristionchus pacificus; conc 60): 9 and 10 | rep 3 coiled (Pristionchus pacificus; conc 60): 8 and 7 | rep 3 no phene (Pristionchus pacificus; conc 60): 0 | rep 3 paralyzed (Pristionchus pacificus; conc 60): 3 | % effect (motility), DIROIM MF ([2]; 0.016 µM): 0% | % effect (motility), DIROIM MF ([2]; 0.08 µM): 0% | % effect (motility), DIROIM MF ([2]; 0.4 µM): 0% | % effect (motility), DIROIM MF ([2]; 2 µM): 0% | % effect (motility), DIROIM MF ([2]; 10 µM): 0%

FC(F)(F)c1cccc(N2CCN(C3CCCCCCC3)CC2)c1 [Nemacol-55]
atypical locomotion (number of animals) (C. elegans; 3.75uM): 5 and 6 and 2 and 3 and 8 | coiled (number of animals) (C. elegans; 3.75uM): 0 | no phene (number of animals) (C. elegans; 3.75uM): 15 and 14 and 18 and 17 and 12 | paralyzed (number of animals) (C. elegans; 3.75uM): 0 | any phene: mean % fraction of young adults exhibiting any phenotype (coiled, jerky-Unc or paralyzed) (C. elegans; 3.75uM): 26.6667% | atypical locomotion (number of animals) (C. elegans; 15uM): 11 and 15 and 8 and 9 and 19 and 18 | coiled (number of animals) (C. elegans; 15uM): 1 and 0 and 2 | no phene (number of animals) (C. elegans; 15uM): 8 and 4 and 12 and 11 and 1 and 0 | paralyzed (number of animals) (C. elegans; 15uM): 0 and 1 | any phene: mean % fraction of young adults exhibiting any phenotype (coiled, jerky-Unc or paralyzed) (C. elegans; 15uM): 70% | atypical locomotion (number of animals) (C. elegans; 60uM): 18 and 17 and 16 and 11 and 15 | coiled (number of animals) (C. elegans; 60uM): 0 and 2 and 5 and 4 and 3 | no phene (number of animals) (C. elegans; 60uM): 0 and 2 | paralyzed (number of animals) (C. elegans; 60uM): 2 and 1 and 0 and 4 | any phene: mean % fraction of young adults exhibiting any phenotype (coiled, jerky-Unc or paralyzed) (C. elegans; 60uM): 96.6667% | EC50 (C. elegans): 7.9 ± 3.5 µM | % effect (motility), DIROIM L4 ([1]; 10 µM): 15% | % effect (motility), DIROIM L4 ([1]; 50 µM): 35% | mean % any phene (coiled, jerky-Unc or paralyzed) (Pristionchus pacificus; [3]): 5% | mean % any phene (coiled, jerky-Unc or paralyzed) (Pristionchus pacificus; conc 15, observed at one hour): 8.333% | mean % any phene (coiled, jerky-Unc or paralyzed) (Pristionchus pacificus; conc 60, observed at one hour): 59.1667% | EC50 (Pristionchus pacificus): 49.2 ± 6.2 µM | % effect (motility), DIROIM MF ([2]; 0.016 µM): 0% | % effect (motility), DIROIM MF ([2]; 0.08 µM): 0% | % effect (motility), DIROIM MF ([2]; 0.4 µM): 0% | % effect (motility), DIROIM MF ([2]; 2 µM): 0% | % effect (motility), DIROIM MF ([2]; 10 µM): 0%
